Legend:
S. pneumoniae D39V [1] = assay: Bliss interaction score (quartile over a dose matrix) (fitness difference); higher = more antagonism (negative = synergy)
Outline: (§1)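 Fitness here means normalised growth, inferred for single drugs from the combination data. Growth was OD595 at entry into stationary phase, divided by the plate's robust no-drug mean and capped at 1. The Bliss score is observed minus expected fitness, with the expectation being the product, and its quartiles span technical, biological and donor/recipient replicates.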

S. aureus Newman [2] = assay: as above
Outline: as §1

S. aureus DSM 20231 [3] = assay: as above
Outline: as §1

B. subtilis 168 [4] = assay: as above
Outline: as §1

S. pneumoniae D39V [5] = assay: fitness (endpoint OD595 vs no drug) (fraction); higher = more growth
Outline: (§2)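 Growth medium was TSB, LB Lennox or CY, and plates were kept at 37 °C. Inoculation was at OD595 0.01 in 384-well plates, at 30 µl per well or 55 µl for S. pneumoniae. OD595 was monitored every 30 min for 14 h and background-subtracted using the first reading. Fitness is the optical density on entering stationary phase divided by the robust mean of no-drug controls, with values capped at 1.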

S. aureus Newman [6] = assay: as above
Outline: as §2

S. aureus DSM 20231 [7] = assay: as above
Outline: as §2

B. subtilis 168 [8] = assay: as above
Outline: as §2
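Throughout, for Bliss interaction score (quartile over a dose matrix): first quartile when negative (synergy) and third quartile when positive (antagonism).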
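Throughout, for fitness (endpoint OD595 vs no drug): OD595 on entry to stationary phase over no-drug wells; at most 1.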

CCC[C@@H]1C[C@@H](C(=O)N[C@@H]([C@H]2O[C@H](SC)[C@H](O)[C@@H](O)[C@H]2O)[C@H](C)Cl)N(C)C1 [Clindamycin] + CC1=C\[C@@H](O)CC(=O)Cc2nc(co2)C(=O)N2CCC=C2C(=O)O[C@H](C(C)C)[C@H](C)/C=C/C(=O)NC\C=C\1 [Virginiamycin M1]
Conditions | Bliss interaction score
B. subtilis 168 [4] | -0.0417
S. aureus DSM 20231 [3] | -0.0802
S. aureus Newman [2] | -0.0298
S. pneumoniae D39V [1] | -0.0639

Conditions | fitness
B. subtilis 168 [8], first compound 0.0625 µg/mL, partner 0.0625 µg/mL | 0.595
B. subtilis 168 [8], first compound 0.0625 µg/mL, partner 0.125 µg/mL | 0.564
B. subtilis 168 [8], first compound 0.0625 µg/mL, partner 0.25 µg/mL | 0.59
B. subtilis 168 [8], first compound 0.125 µg/mL, partner 0.0625 µg/mL | 0.397
B. subtilis 168 [8], first compound 0.125 µg/mL, partner 0.125 µg/mL | 0.364
B. subtilis 168 [8], first compound 0.125 µg/mL, partner 0.25 µg/mL | 0.38
B. subtilis 168 [8], first compound 0.25 µg/mL, partner 0.0625 µg/mL | 0.361
B. subtilis 168 [8], first compound 0.25 µg/mL, partner 0.125 µg/mL | 0.357
B. subtilis 168 [8], first compound 0.25 µg/mL, partner 0.25 µg/mL | 0.366
S. aureus DSM 20231 [7], first compound 0.0625 µg/mL, partner 0.0625 µg/mL | 0.0867
S. aureus DSM 20231 [7], first compound 0.0625 µg/mL, partner 0.125 µg/mL | 0.0913
S. aureus DSM 20231 [7], first compound 0.0625 µg/mL, partner 0.25 µg/mL | 0.131
S. aureus DSM 20231 [7], first compound 0.125 µg/mL, partner 0.0625 µg/mL | 0.0395
S. aureus DSM 20231 [7], first compound 0.125 µg/mL, partner 0.125 µg/mL | 0.0407
S. aureus DSM 20231 [7], first compound 0.125 µg/mL, partner 0.25 µg/mL | 0.0815
S. aureus Newman [6], first compound 0.0312 µg/mL, partner 0.0625 µg/mL | 0.601
S. aureus Newman [6], first compound 0.0312 µg/mL, partner 0.125 µg/mL | 0.613
S. aureus Newman [6], first compound 0.0312 µg/mL, partner 0.25 µg/mL | 0.622
S. aureus Newman [6], first compound 0.0625 µg/mL, partner 0.0625 µg/mL | 0.303
S. aureus Newman [6], first compound 0.0625 µg/mL, partner 0.125 µg/mL | 0.321
S. aureus Newman [6], first compound 0.0625 µg/mL, partner 0.25 µg/mL | 0.296
S. aureus Newman [6], first compound 0.125 µg/mL, partner 0.0625 µg/mL | 0.0641
S. aureus Newman [6], first compound 0.125 µg/mL, partner 0.125 µg/mL | 0.0861
S. aureus Newman [6], first compound 0.125 µg/mL, partner 0.25 µg/mL | 0.0756
S. pneumoniae D39V [5], first compound 0.0125 µg/mL, partner 0.5 µg/mL | 0.735
S. pneumoniae D39V [5], first compound 0.0125 µg/mL, partner 1 µg/mL | 0.726
S. pneumoniae D39V [5], first compound 0.0125 µg/mL, partner 2 µg/mL | 0.669
S. pneumoniae D39V [5], first compound 0.015 µg/mL, partner 2 µg/mL | 0.806
S. pneumoniae D39V [5], first compound 0.025 µg/mL, partner 0.5 µg/mL | 0.496
S. pneumoniae D39V [5], first compound 0.025 µg/mL, partner 1 µg/mL | 0.471
S. pneumoniae D39V [5], first compound 0.025 µg/mL, partner 2 µg/mL | 0.428
S. pneumoniae D39V [5], first compound 0.03 µg/mL, partner 2 µg/mL | 0.699
S. pneumoniae D39V [5], first compound 0.05 µg/mL, partner 0.5 µg/mL | 0.243
S. pneumoniae D39V [5], first compound 0.05 µg/mL, partner 1 µg/mL | 0.217
S. pneumoniae D39V [5], first compound 0.05 µg/mL, partner 2 µg/mL | 0.15
S. pneumoniae D39V [5], first compound 0.06 µg/mL, partner 2 µg/mL | 0.624

one replicate
Conditions | fitness
B. subtilis 168 [8], first compound 0.0039 µg/mL, partner 0.0625 µg/mL | 0.963
B. subtilis 168 [8], first compound 0.0039 µg/mL, partner 0.125 µg/mL | 0.94
B. subtilis 168 [8], first compound 0.0039 µg/mL, partner 0.25 µg/mL | 0.971
B. subtilis 168 [8], first compound 0.0078 µg/mL, partner 0.0625 µg/mL | 0.459
B. subtilis 168 [8], first compound 0.0078 µg/mL, partner 0.125 µg/mL | 0.881
B. subtilis 168 [8], first compound 0.0078 µg/mL, partner 0.25 µg/mL | 0.862
B. subtilis 168 [8], first compound 0.0156 µg/mL, partner 0.0625 µg/mL | 0.845
B. subtilis 168 [8], first compound 0.0156 µg/mL, partner 0.125 µg/mL | 0.923
B. subtilis 168 [8], first compound 0.0156 µg/mL, partner 0.25 µg/mL | 0.927
S. aureus DSM 20231 [7], first compound 0.0312 µg/mL, partner 0.5 µg/mL | 0.661
S. aureus DSM 20231 [7], first compound 0.0312 µg/mL, partner 1 µg/mL | 0.597
S. aureus DSM 20231 [7], first compound 0.0625 µg/mL, partner 0.5 µg/mL | 0.316
S. aureus DSM 20231 [7], first compound 0.0625 µg/mL, partner 1 µg/mL | 0.275
S. aureus DSM 20231 [7], first compound 0.125 µg/mL, partner 0.5 µg/mL | 0.067
S. aureus DSM 20231 [7], first compound 0.125 µg/mL, partner 1 µg/mL | 0.121
S. aureus Newman [6], first compound 0.0312 µg/mL, partner 0.5 µg/mL | 0.865
S. aureus Newman [6], first compound 0.0312 µg/mL, partner 1 µg/mL | 0.892
S. aureus Newman [6], first compound 0.0312 µg/mL, partner 2 µg/mL | 0.769
S. aureus Newman [6], first compound 0.0625 µg/mL, partner 0.5 µg/mL | 0.702
S. aureus Newman [6], first compound 0.0625 µg/mL, partner 1 µg/mL | 0.728
S. aureus Newman [6], first compound 0.0625 µg/mL, partner 2 µg/mL | 0.595
S. aureus Newman [6], first compound 0.125 µg/mL, partner 0.5 µg/mL | 0.491
S. aureus Newman [6], first compound 0.125 µg/mL, partner 1 µg/mL | 0.475
S. aureus Newman [6], first compound 0.125 µg/mL, partner 2 µg/mL | 0.276
S. pneumoniae D39V [5], first compound 0.015 µg/mL, partner 0.15 µg/mL | 0.978
S. pneumoniae D39V [5], first compound 0.015 µg/mL, partner 0.3 µg/mL | 0.911
S. pneumoniae D39V [5], first compound 0.015 µg/mL, partner 0.5 µg/mL | 0.877
S. pneumoniae D39V [5], first compound 0.015 µg/mL, partner 1 µg/mL | 0.838
S. pneumoniae D39V [5], first compound 0.03 µg/mL, partner 0.15 µg/mL | 0.838
S. pneumoniae D39V [5], first compound 0.03 µg/mL, partner 0.3 µg/mL | 0.82
S. pneumoniae D39V [5], first compound 0.03 µg/mL, partner 0.5 µg/mL | 0.79
S. pneumoniae D39V [5], first compound 0.03 µg/mL, partner 1 µg/mL | 0.652
S. pneumoniae D39V [5], first compound 0.06 µg/mL, partner 0.15 µg/mL | 0.736
S. pneumoniae D39V [5], first compound 0.06 µg/mL, partner 0.3 µg/mL | 0.695
S. pneumoniae D39V [5], first compound 0.06 µg/mL, partner 0.5 µg/mL | 0.703
S. pneumoniae D39V [5], first compound 0.06 µg/mL, partner 1 µg/mL | 0.574

From the supplement of paper PMC10627819
